Data reported in US5215991A, “Combination of selective alpha-adrenergic agonists and Na^+ /H^+ e x” (priority 1990, dated 1993).

Legend:
[1] = system: New Zealand White rabbits with normotensive IOP; experiment: Intraocular pressure (IOP) after topical ocular administration in normotensive New Zealand White rabbits; assay type: in vivo, New Zealand White rabbit; details: for ΔIOP at 1 Hr., (X + p) / ΔIOP at 3 Hr., (X + p): Na+/H+ inhibitor X (1%) followed 30 min later by p-amino clonidine (0.1%), mean change from pre-drug level; for ΔIOP at 1 Hr., (X + p): 1 hour post p-amino clonidine; for ΔIOP at 3 Hr., (X + p): 3 hours post p-amino clonidine; for IOP change, amiloride analog administered alone: amiloride analogs alone, Example 2; for ΔIOP at 1 Hr., (X + p) - p / ΔIOP at 3 Hr., (X + p) - p: difference between X (1%) + p-amino clonidine (0.1%) and p-amino clonidine alone; for ocular hypotensive response to the alpha2 agonist after pretreatment with the Na+/H+ exchange inhibitor: pretreatment with Na+/H+ exchange inhibitor (1%) 30 min before the alpha2 agonist, FIGS. 2-4
Procedure: Ocular co-administration of an alpha2 agonist and a Na^+ /H^+ exchange inhibitor to effect lowering of IOP was experimentally tested in the New Zealand White rabbit.
The effect of co-administrating of alpha2 agonists and a Na^+ /H^+ exchange inhibitor on lowering IOP was testing in New Zealand White rabbits with normotensive IOP and weighing 3-4 kg. Topical anesthesia was produced by instillation of about 5 μl of […].
Separate solution of various alpha2 agonists and a Na^+ /H^+ exchange inhibitor were prepared by dissolving the specified quantity of agonists or the Na^+ /H^+ exchange inhibitor in distilled water to obtain the concentrations shown below in Table III. The pH of the final solutions ranged from about 4 to about 7.5 as indicated by the characteristics of the individual drugs.
The animals were divided into 2 groups. One group was treated with the Na^+ /H^+ exchange inhibitor followed by an alpha2 agonist and the other group received vehicle followed by the alpha2 agonist. Intraocular pressure (IOP) was measured in both eyes for each animal using a calibrated DIGILAB® pneumatonograph. […] Thirty minutes after application of the Na^+ /H^+ exchange inhibitor or vehicle, IOP was again measured for the eye. Immediately following these measurements, 50 μl of one of the alpha2 agonists solution given in Table III was administered to the test eye in the same manner described above. Thereafter, IOP measurements for each eye of each animal were made at 30 minutes after administration of the alpha2 agonist, then hourly for 6 hours. In separate experiments, the IOP response to the Na^+ /H^+ exchange inhibitor alone was determined.
In another series of experiments, carried out in substantially the same manner as set forth in Example 1, various amiloride analogs with varying potencies at inhibiting Na^+ /H^+ exchange were co-administered with an alpha2 agonist, p-amino clonidine, and IOP determine. […] The data are expressed as mean changes from pre-drug levels.

Na^+ /H^+ exchange = details: inhibition of Na+/H+ exchange in human neutrophils; data taken from Simchowitz and Cragoe, Mol. Pharmacol. 30, 112-120, 1986; cited from earlier work

Compound: NC(N)=NC(=O)c1nc(Cl)c(N2CCCCCC2)nc1N [5-(N,N-hexamethylene) amiloride]
- ΔIOP at 1 Hr., (X + p) [1]: -8.6 mmHg
- ΔIOP at 3 Hr., (X + p) [1]: -7.5 mmHg
- IOP change, amiloride analog administered alone [1]: substantially inactive
- ΔIOP at 1 Hr., (X + p) - p [1]: -11.6 mmHg
- ΔIOP at 3 Hr., (X + p) - p [1]: -10.1 mmHg
- Ki (Na^+ /H^+ exchange): 0.16 µM

Compound: Brc1c(NC2=NCCN2)ccc2nccnc12 [5-bromo-6-(2-imidazolidine-2-ylamino)quinoxaline]
- ocular hypotensive response to the alpha2 agonist after pretreatment with the Na+/H+ exchange inhibitor [1]: augmented

Compound: CCN(c1nc(N)c(C(=O)N=C(N)N)nc1Cl)C(C)C [5-(N-ethyl-N-isopropyl) amiloride]
- ΔIOP at 1 Hr., (X + p) [1]: -7.2 mmHg
- ΔIOP at 3 Hr., (X + p) [1]: -5.7 mmHg
- IOP change, amiloride analog administered alone [1]: substantially inactive
- ΔIOP at 1 Hr., (X + p) - p [1]: -10.2 mmHg
- ΔIOP at 3 Hr., (X + p) - p [1]: -7.4 mmHg
- IOP response to the Na+/H+ exchange inhibitor alone ([1]; three concentrations (0.1, 0.3, 1%), topical, FIG. 1): did not significantly alter IOP
- Ki (Na^+ /H^+ exchange): 0.36 µM

Compound: Nc1cc(Cl)c(NC2=NCCN2)c(Cl)c1 [p-amino clonidine, p-aminoclonidine]
- ocular hypotensive response to the alpha2 agonist after pretreatment with the Na+/H+ exchange inhibitor [1]: augmented

Compound: Clc1cccc(Cl)c1N=C1NCCN1 [clonidine]
- ocular hypotensive response to the alpha2 agonist after pretreatment with the Na+/H+ exchange inhibitor [1]: augmented

Compound: N=C(N)NC(=O)c1nc(Cl)c(N)nc1N [Amiloride]
- ΔIOP at 1 Hr., (X + p) [1]: +3.0 mmHg
- ΔIOP at 3 Hr., (X + p) [1]: +2.6 mmHg
- ΔIOP at 1 Hr., (X + p) - p [1]: +0.2 mmHg
- ΔIOP at 3 Hr., (X + p) - p [1]: +0.6 mmHg
- Ki (Na^+ /H^+ exchange): 83.8 µM

Compound: CN(C)c1nc(N)c(C(=O)N=C(N)N)nc1Cl [5-(N,N-dimethyl) amiloride]
- ΔIOP at 1 Hr., (X + p) [1]: +1.8 mmHg
- ΔIOP at 3 Hr., (X + p) [1]: +0.7 mmHg
- IOP change, amiloride analog administered alone [1]: substantially inactive
- ΔIOP at 1 Hr., (X + p) - p [1]: -1.2 mmHg
- ΔIOP at 3 Hr., (X + p) - p [1]: -1.9 mmHg
- Ki (Na^+ /H^+ exchange): 6.9 µM
